From US20070191465A1, “Channel blocking compounds” (priority 2003, published 2007)
Several values for one entry are separate records, joined by “and”; a condition that tells them apart may be missing. Equal entries are not always repeated. Entries after “also recorded” stand apart in the source; their conditions may differ.

Experiments:
[1] = molecular target: T1, hSlo α subunit large conductance calcium-activated potassium (BK) channels (Homo sapiens, UniProt Q12791); assay: Inside-out patch clamp of hSlo α subunit BK channels expressed in HEK293 cells; format: cell-based; settings: for BK channel current as fraction of the control response: α subunit
T1 construct: expressed in transfected cells; host or cells: HEK293 (transient; co-transfected with CD4 as a marker)
T1 sequence (Q12791 whole entry): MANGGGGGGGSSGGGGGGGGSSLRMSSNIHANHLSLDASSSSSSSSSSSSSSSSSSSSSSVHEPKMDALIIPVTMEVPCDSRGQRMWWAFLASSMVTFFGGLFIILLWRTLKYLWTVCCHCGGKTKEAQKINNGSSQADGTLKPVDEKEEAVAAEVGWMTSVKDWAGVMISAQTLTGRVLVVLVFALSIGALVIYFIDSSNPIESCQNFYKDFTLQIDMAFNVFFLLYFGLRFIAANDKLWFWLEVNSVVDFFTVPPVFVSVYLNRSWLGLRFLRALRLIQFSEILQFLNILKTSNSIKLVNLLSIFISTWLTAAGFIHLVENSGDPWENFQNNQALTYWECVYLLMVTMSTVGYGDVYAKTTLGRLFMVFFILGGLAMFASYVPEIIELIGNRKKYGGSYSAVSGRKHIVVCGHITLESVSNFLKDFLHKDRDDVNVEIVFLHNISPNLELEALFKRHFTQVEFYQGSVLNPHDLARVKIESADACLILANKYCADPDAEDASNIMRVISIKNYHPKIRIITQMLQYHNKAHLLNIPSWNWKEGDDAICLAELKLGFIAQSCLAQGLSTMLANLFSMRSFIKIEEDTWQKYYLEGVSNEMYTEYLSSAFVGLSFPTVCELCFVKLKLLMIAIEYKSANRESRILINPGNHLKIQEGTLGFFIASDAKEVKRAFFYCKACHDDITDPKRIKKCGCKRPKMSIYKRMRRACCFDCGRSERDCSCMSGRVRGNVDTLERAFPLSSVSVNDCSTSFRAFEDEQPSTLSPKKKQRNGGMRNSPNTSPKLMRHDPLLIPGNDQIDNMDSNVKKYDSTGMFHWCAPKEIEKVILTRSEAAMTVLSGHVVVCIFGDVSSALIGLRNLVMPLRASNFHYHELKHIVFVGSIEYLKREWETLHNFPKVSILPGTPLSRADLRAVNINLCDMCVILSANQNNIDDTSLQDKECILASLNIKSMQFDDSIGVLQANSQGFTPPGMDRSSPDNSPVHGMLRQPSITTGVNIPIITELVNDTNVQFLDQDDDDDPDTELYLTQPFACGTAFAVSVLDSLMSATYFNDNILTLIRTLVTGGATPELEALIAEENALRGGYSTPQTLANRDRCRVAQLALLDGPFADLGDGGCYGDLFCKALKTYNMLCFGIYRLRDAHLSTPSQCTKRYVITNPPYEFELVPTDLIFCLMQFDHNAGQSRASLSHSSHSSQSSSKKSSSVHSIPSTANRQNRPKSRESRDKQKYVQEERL
Experimental: In this experiment, hSlo α subunit large conductance calcium-activated potassium (BK) channels with an N-terminal c-myc tag in the mammalian vector pcDNA (Meera et al, 1997) were transiently expressed in human embryonic kidney cells (cell type HEK293).
Human embryonic kidney cells were grown in a mix of DMEM (Dulbecco's Modified Eagle Medium, GibcoBRL Cat#12100-038) and 2.5 mM HEPES (N-[2-Hydroxyethyl]piperazine-N′-[2-ethanesulfonic acid]), supplemented with minimal essential amino acids and 10% fetal bovine serum.
Cells were subsequently plated into 24-well plates, grown to 95% confluency and transfected 24 hours later with 10 μg of hSlo and 2 μg CD4 (pcDNA) and 2 µl Lipofectamine 2000™.
Cells were plated onto cover slips 24 hours later. CD4 antibody-labelled beads were used to identify transfected cells. Macroscopic currents were recorded from excised inside-out patches at 3 days post-transfection.
A stock of 100 μM Lolitrem B was made up in dimethyl sulfoxide (DMSO). This was diluted to the appropriate concentration in electrophysiological solutions.
The bath solution that was applied to the internal side of the cell membrane of the inside-out membrane patch was (mM): 140 KMeSO3, 2 KCl, 20 HEPES (N-[2-Hydroxyethyl]piperazine-N′-[2-ethanesulfonic acid]), 5 HEDTA (N-([2-hydroxyethyl)ethylene-diaminetriacetic acid) and 3.65 CaCl2 to give 10 μM free calcium with a pH of 7.2.
The pipette solution applied to the extemal side of the cell membrane of the inside-out membrane patch was (mM): 140 KMeSO3, 2 KCl, 20 HEPES, and 2 MgCl2, with a pH of 7.2.
Macroscopic currents were recorded in an inside-out patch-clamp configuration using an amplifier, interface and data collection software. Data were filtered at 5 kHz and sampled at 20 μs intervals. Fast capacitance compensation was used to cancel the fast transient. Leak subtraction was used although the background potassium current was small.
Channels were activated by voltage pulses to +150 mV every minute in the presence of 10 μM free calcium. Control current responses were recorded over 5 minutes. Only patches that remained stable over this time were used in experiments.
Each concentration of lolitrem B was applied for 5 minutes or until the current response had stabilised and fractional block calculated as the decrease in current as a fraction of the control. The current amplitude was the mean current over the last half of the voltage pulse to +150 mV.

mice = settings: known from literature (Munday-Finch); cited from earlier work
α+β1 BK channels = molecular target: T2, α+β1 BK channels (Homo sapiens, UniProt Q12791); assay: Patch clamp of α+β1 BK channels expressed in human embryonic kidney cells; format: cell-based; settings: for IC50: IC50, α + β1, +150 mV, 10 μM internal free calcium; for h = Hill coefficient: α + β1
T2 construct: expressed in transfected cells; host or cells: human embryonic kidney cells (HEK293)
T2 sequence (Q12791 whole entry): as above
T2 sequence (Q16558 whole entry partner): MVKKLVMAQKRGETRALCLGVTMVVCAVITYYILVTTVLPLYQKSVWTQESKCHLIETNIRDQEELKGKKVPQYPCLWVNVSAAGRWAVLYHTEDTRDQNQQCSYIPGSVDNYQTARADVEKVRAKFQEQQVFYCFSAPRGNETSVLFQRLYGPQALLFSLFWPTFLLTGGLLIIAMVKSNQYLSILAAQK
Experimental: (§1) Current amplitude (I′) 5 minutes after addition of increasing lolitriol concentrations, shown as a fraction of the control response. Lolitriol was applied to α+β1 channels (solid circles) and to α+β4 channels (open circles). 31-epilolitrem B was applied to α+β1 channels (solid triangles) and to α+β4 channels (open triangles). Shaded triangles are data points from a single cell to which the curve was fitted. Lolitrem B was applied to hSlo channels (solid squares) a previous study and is shown for comparison. The current response was averaged over the last half of a voltage pulse to +150 mV for 50 ms, with 10 μM internal free calcium. The vertical bars show ±1 S.E.M. in 3 or more cells. The curve is a fit of a Hill-type equation to the data.
(§2) We used BK channels containing beta subunits that are expressed in smooth muscle ([…]) and brain (β4). BK channels with subunit combinations α+β1 or α+β4 were expressed in human embryonic kidney cells and their function assayed by patch clamping.
(§3) hSlo α subunit large conductance calcium-activated potassium channels in pcDNA3 (Meera et al., 1997) together with the human β4 subunit in pEGFP-N1 were transiently expressed in human embryonic kidney cells (HEK293). HEK cells were grown in a mix of DMEM (Dulbecco's Modified Eagle Medium) and 2.5 mM HEPES (N-[2-Hydroxyethyl]-piperazine-N′-[2-ethanesulfonic acid]), supplemented with minimal essential amino acids and 10% fetal bovine serum. Cells were subsequently plated onto 24-well plates, grown to 95% confluency and transfected 24 hours later with 10 μg of hSlo, 8 μg of β4 and 2 μl Lipofectamine 2000™. Cells were plated onto cover slips 24 hours later. Transfected cells expressed green fluorescent protein and were identified under UV light by their fluorescence.

[2] = molecular target: T3, α+β4 BK channels (hSlo α subunit with human β4 subunit) (Homo sapiens, UniProt Q12791); assay: Patch clamp of α+β4 BK channels expressed in human embryonic kidney cells; format: cell-based; settings: for h = Hill coefficient: α + β4
T3 construct: expressed in transfected cells; host or cells: HEK293 (transient)
T3 sequence (Q12791 whole entry): as the sequence (Q12791 whole entry) above
T3 sequence (Q86W47 whole entry partner): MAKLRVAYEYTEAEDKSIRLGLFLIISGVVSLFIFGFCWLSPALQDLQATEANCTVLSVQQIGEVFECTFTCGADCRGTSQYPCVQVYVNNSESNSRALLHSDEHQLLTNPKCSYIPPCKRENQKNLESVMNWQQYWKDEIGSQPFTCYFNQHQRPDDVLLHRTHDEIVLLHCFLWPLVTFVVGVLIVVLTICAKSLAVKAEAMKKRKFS
Experimental: as §1, §2, §3

BK channel [3] = molecular target: T4, BK channel (Homo sapiens, UniProt Q12791); assay: Degree of antagonist inhibition of BK channels, subunit composition not stated; format: cell-based
T4 sequence (Q12791 whole entry): as the sequence (Q12791 whole entry) above

BK channel [4] = molecular target: T4, BK channel; settings: McMillan et al., 2003; cited from earlier work

Row | Compound | BK channel current as fraction of the control response ([1]; 100 nM) | tremorgenicity (mice) | IC50 (α+β1 BK channels) | h = Hill coefficient (α+β1 BK channels) | h = Hill coefficient [2] | other results
1 | CC(C)=CCOC(C)(C)[C@H]1O[C@H]2CC[C@@]3(C)[C@@](O)(CC[C@H]4Cc5c([nH]c6ccc7c(c56)C[C@@H]5[C@@H](C7=O)C(C)(C)OC5(C)C)[C@@]43C)[C@]23O[C@@H]3[C@@H]1O [lolitrem E] | 0.01 | partial-tremorgenic | – | – | – | degree of antagonist inhibition ([1]; approximately 100 nM): approximately 100%
2 | CC(C)=CC1OC2C(OC3CCC4(C)C5(C)c6[nH]c7ccc8c(c7c6CC5CCC4(O)C34OC24)CC2C(C8=O)C(C)(C)OC2(C)C)C(C)(C)O1 (centres unmarked) [lolitrem B] | – | tremorgenic | – | – | – | inhibition of the BK channel current (in words) ([1]; 2 nM): partial inhibition; reversal of current block by wash-out ([1]; 10 nM or greater, wash-out with control solution for 30 minutes at 4 ml/min): not able to be reversed; also recorded: could not be reversed; inhibition of the BK channel current (in words) ([1]; 20 nM applied to the perfusion bath): complete inhibition; IC50 ([1]; IC50 (concentration of half maximal inhibition), α alone, voltage pulse to +150 mV, 10 μM free calcium, Hill equation fit, 11 cells): 3.7 nM and ~3.7 nM; degree of antagonist inhibition ([1]; approximately 20 nM): approximately 97%; h = Hill coefficient ([1]; α alone): 1.7
3 | CC(C)(O)C1OC2CCC3(C)C4(C)c5[nH]c6ccc7c(c6c5CC4CCC3(O)C23OC3C1O)CC1C(C7=O)C(C)(C)OC1(C)C (centres unmarked) [lolitriol] | 0.29 | non-tremorgenic | ~195 nM and 195 nM | 2.3 | 2.7 | BK channel current as fraction of the control response ([1]; 200 nM): 0.25; current response as fraction of control after wash-out ([1]; wash-out with control solution for 30 minutes at 4 ml/min): 0.86; concentration required to inhibit α+β4 channels compared with α+β1 channels ([2]; α+β4 versus α+β1): Twice; degree of antagonist inhibition (BK channel [3]; approximately 1000 nM): approximately 100%
4 | desoxypaxilline [reference compound] | – | non-tremorgenic | – | – | – | concentration needed for the same degree of BK inhibition as paxilline (BK channel [4]): 24 times
5 | CC1(C)OC(C)(C)C2C(=O)c3ccc4[nH]c5c(c4c3CC21)C[C@@H]1CC[C@@]2(O)C3=CC(=O)[C@@H](C(C)(C)O)OC3CC[C@]2(C)[C@@]51C (some centres unmarked) [lolilline] | – | non-tremorgenic | – | – | – | –
6 | CC(C)=CC1OC2C(OC3CCC4(C)C5(C)c6[nH]c7ccc8c(c7c6CC5CCC4(O)C34OC24)CC2C(C8=O)C(C)(C)OC2(C)C)C(C)(C)O1 (centres unmarked) [31-epilolitrem B] | 0.06±0.02 | non-tremorgenic | ~58 nM and 58 nM | 2.7 | 2.2 | current response as fraction of control after wash-out ([1]; after 100 nM, wash-out with control solution for 26 minutes, one experiment): 0.59; degree of antagonist inhibition (BK channel [3]; approximately 200 nM): approximately 100%
